Assay results as given in patent US6362188B1, “Farnesyl protein transferase inhibitors” (Schering Corporation, priority 1998, dated 2002).

Assays:
Human tumor cells = assay: Soft Agar Assay (anchorage-independent growth); assay type: cell-based; settings: colony outgrowth in soft agar, stated as a range for the group
Experimental: Anchorage-independent growth is a characteristic of tumorigenic cell lines. Human tumor cells can be suspended in growth medium containing 0.3% agarose and an indicated concentration of a farnesyl transferase inhibitor. The solution can be overlayed onto growth medium solidified with 0.6% agarose containing the same concentration of farnesyl transferase inhibitor as the top layer. After the top layer is solidified, plates can be incubated for 10-16 days at 37° C. under 5% CO2 to allow colony outgrowth. After incubation, the colonies can be stained by overlaying the agar with a solution of MTT (3-[4,5-dimethyl-thiazol-2-yl]-2,5-diphenyltetrazolium bromide, Thiazolyl blue) (1 mg/mL in PBS). Colonies can be counted and the IC50's can be determined.

Row | melting point [°C] | IC50 (Human tumor cells) [nM] | Compound
1 | 179 to 182 | – | CC(C)(C)OC(=O)N1CCN(C2c3ccc(Cl)cc3CCc3cc(Br)cnc32)CC1C(=O)N1CCS(=O)(=O)C(Cn2ccnc2)C1 (stereo not shown) [Example 8]
2 | 108 to 123 | – | Cc1nccn1CC1CCCN(C(=O)C2CN(C3c4ccc(Cl)cc4CCc4cccnc43)CCN2C(=O)OC2CCCCC2)C1 (single isomer, unassigned) [Example 45]
3 | 117 to 120 | – | Cc1cn(CC2CCCN(C(=O)C3CN(C4c5ccc(Cl)cc5CCc5cccnc54)CCN3C(=O)OC(C)C)C2)cn1 (stereo not shown) [41(A)]
4 | 101 to 120 | – | Cc1cn(CC2CCCN(C(=O)C3CN(C4c5ccc(Cl)cc5CCc5cccnc54)CCN3C(=O)OC(C)C)C2)cn1 (stereo not shown) [41(B)]
5 | 99 to 113 | – | Cc1cn(CC2CCCN(C(=O)C3CN(C4c5ccc(Cl)cc5CCc5cccnc54)CCN3C(=O)OC3CCCCC3)C2)cn1 (stereo not shown) [Example 42]
6 | 100 to 106 | – | Cc1nccn1CC1CCCN(C(=O)C2CN(C3c4ccc(Cl)cc4CCc4cccnc43)CCN2C(=O)OC2CCCCC2)C1 (single isomer, unassigned) [Example 47]
7 | 110 to 123 | – | Cc1cn(CC2CCCN(C(=O)C3CN(C4c5ccccc5CCc5cc(Cl)cnc54)CCN3C(=O)OC(C)(C)C)C2)cn1 (single isomer, unassigned) [Example 293]
8 | 133 to 139 | – | Cc1cn(CC2CCCN(C(=O)C3CN(C4c5ccc(Cl)cc5CCc5cccnc54)CCN3C(=O)OC3CCCCC3)C2)cn1 (stereo not shown) [47(B)]
9 | 108 to 118 | – | Cc1cn(CC2CCCN(C(=O)C3CN(C4c5ccc(Cl)cc5CCc5cccnc54)CCN3C(=O)OC3CCCCC3)C2)cn1 (stereo not shown) [Example 43]
10 | 95 to 100 | – | Cc1nccn1CC1CCCN(C(=O)C2CN(C3c4ccc(Cl)cc4CCc4cccnc43)CCN2C(=O)OC(C)C)C1 (single isomer, unassigned) [Example 41]
11 | 132 to 136 | – | CC(C)NC(=O)N1CCN([C@@H]2c3ccc(Cl)cc3CCc3cc(Br)cnc32)C[C@@H]1C(=O)N1CCC[C@@H](Cn2ccnc2)C1 [Example 17]
12 | 135 to 141 | – | CS(=O)(=O)N1CCN(C2c3ccc(Cl)cc3CCc3cc(Br)cnc32)C[C@@H]1C(=O)N1CCC[C@@H]1Cn1ccnc1 (stereo partly shown) [Example 22]
13 | 131 to 135 | – | Cc1cn(CC2CCCN(C(=O)C3CN(C4c5ccc(Cl)cc5CCc5cc(Br)cnc54)CCN3C(=O)OC(C)(C)C)C2)cn1 (stereo not shown) [Example 4.2]
14 | 91 to 94 | – | Cc1nccn1CC1CCCN(C(=O)C2CN(C3c4ccc(Cl)cc4CCc4cccnc43)CCN2C(=O)OC2CCCCC2)C1 (single isomer, unassigned) [Example 46]
15 | – | 0.05 to 30 | Cc1cn(CC2CCCN(C(=O)C3CN(C4c5ncccc5CCc5cccc(Cl)c54)CCN3C(=O)OC3CCCCC3)C2)cn1 (single isomer, unassigned) [Example 391]
16 | – | 0.05 to 30 | Cc1cn(C[C@H]2CCCN(C(=O)[C@H]3CN([C@H]4c5ccc(Cl)cc5CCc5cc(Br)cnc54)CCN3C(=O)OC3CCCCC3)C2)cn1 [Example 186]
17 | – | 0.5 to 30 | Cc1nccn1CC1CCCN(C(=O)C2CN(C3c4ccc(Cl)cc4CCc4cccnc43)CCN2C(=O)NC(C)(C)C)C1 (stereo not shown) [Example 49]
18 | – | 0.5 to 30 | Cc1cn(C[C@@H]2CCCN(C(=O)[C@H]3CN([C@H]4c5ccc(Cl)cc5CCc5cccnc54)CCN3C(=O)OC(C)(C)C)C2)cn1 [Example 32]
19 | – | 0.05 to 30 | Cc1cn(C[C@H]2CCCN(C(=O)[C@H]3CN([C@@H]4c5ccc(Cl)cc5CCc5cc(Br)cnc54)CCN3C(=O)NC(C)(C)C)C2)cn1 [Example 191]
20 | – | 0.05 to 30 | Cc1[nH]cnc1CC1CN(C(=O)C2CN(C3c4ccc(Cl)cc4CCc4cc(Br)cnc43)CCN2C(=O)OC(C)(C)C)CCS1(=O)=O (single isomer, unassigned) [Example 156]

Row | melting point [°C] | IC50 (Human tumor cells) [nM] | Compound
21 | – | 0.05 to 30 | Cc1cn(C[C@H]2CCCN(C(=O)[C@H]3CN([C@@H]4c5ccccc5CCc5cc(Cl)cnc54)CCN3C(=O)NC3CCCCC3)C2)cn1 [Example 317]
22 | – | 0.05 to 30 | Cc1cn(C[C@@H]2CCCN(C(=O)[C@H]3CN([C@H]4c5ccc(Cl)cc5CCc5cc(Cl)cnc54)CCN3C(=O)NC(C)(C)C)C2)cn1 [Example 238]
23 | – | 0.05 to 30 | Cc1cn(C[C@@H]2CCCN(C(=O)[C@H]3CN([C@H]4c5ccc(Cl)cc5CCc5cc(Br)cnc54)CCN3C(=O)C3(C)CC3)C2)cn1 [Example 201]
24 | – | 0.05 to 30 | Cc1cn(C[C@H]2CCCN(C(=O)[C@H]3CN([C@H]4c5ccccc5CCc5cc(Cl)cnc54)CCN3C(=O)NC3CCCCC3)C2)cn1 [Example 318]
25 | – | 0.05 to 30 | Cc1cn(CC2CCCN(C(=O)C3CN(C4c5ccc(Cl)cc5CCc5cc(Br)cnc54)CCN3C(=O)NC(C)(C)C)C2)cn1 (stereo not shown) [Example 177]
26 | – | 0.05 to 30 | Cc1cn(C[C@H]2CCCN(C(=O)[C@H]3CN([C@H]4c5ccc(Cl)cc5CCc5cc(Br)cnc54)CCN3C(=O)OC(C)C)C2)cn1 [Example 184]
27 | – | 0.05 to 30 | Cc1cn(C[C@@H]2CCCN(C(=O)[C@H]3CN([C@H]4c5ccc(Cl)cc5CCc5cc(Br)cnc54)CCN3C(=O)OC(C)C)C2)cn1 [Example 170]
28 | – | 0.05 to 30 | Cc1cn(CC2(O)CCCN(C(=O)[C@H]3CN([C@H]4c5ccc(Cl)cc5CCc5cccnc54)CCN3C(=O)OCc3ccccc3)C2)cn1 (single isomer, unassigned) [Example 422]
29 | – | 0.05 to 30 | Cc1cn(C[C@H]2CCCN(C(=O)[C@H]3CN([C@H]4c5ccc(Cl)cc5CCc5cc(Br)cnc54)CCN3C(=O)NC(C)(C)C)C2)cn1 [Example 192]
30 | – | 0.05 to 30 | Cc1cn(CC2CCCCN(C(=O)C3CN(C4c5ccc(Cl)cc5CCc5cccnc54)CCN3C(=O)OC3CCCCC3)C2)cn1 (single isomer, unassigned) [Example 409]
31 | – | 0.05 to 30 | Cc1cn(C[C@H]2CCCN(C(=O)[C@H]3CN([C@H]4c5ccccc5CCc5cc(Cl)cnc54)CCN3C(=O)C(C)(C)C)C2)cn1 [Example 316]
32 | – | 0.05 to 30 | Cc1cn(C[C@@H]2CCCN(C(=O)[C@H]3CN([C@H]4c5ccccc5CCc5cc(Cl)cnc54)CCN3C(=O)NC(C)(C)C)C2)cn1 [Example 302]
33 | – | 0.05 to 30 | Cc1cn(C[C@@H]2CCCN(C(=O)[C@H]3CN([C@H]4c5ccc(Cl)cc5CCc5cc(Cl)cnc54)CCN3C(=O)OC(C)C)C2)cn1 [Example 232]
34 | – | 0.05 to 30 | Cc1nccn1CC1CCCN(C(=O)C2CN(C3c4ncccc4CCc4cccc(Cl)c43)CCN2C(=O)OC(C)(C)C)C1 (single isomer, unassigned) [Example 396]
35 | – | 0.5 to 30 | CCc1nccn1CC1CCCN(C(=O)C2CN(C3c4ccc(Cl)cc4CCc4cccnc43)CCN2C(=O)OC(C)(C)C)C1 (stereo not shown) [Example 34]
36 | – | 0.05 to 30 | CC1CCC(Cn2ccnc2)CN1C(=O)[C@H]1CN([C@H]2c3ccc(Cl)cc3CCc3cccnc32)CCN1C(=O)OC1CCCCC1 (stereo partly shown) [Example 424]
37 | – | 0.05 to 30 | Cc1cn(C[C@@H]2CN(C(=O)[C@H]3CN([C@@H]4c5ccc(Cl)cc5CCc5cc(Br)cnc54)CCN3C(=O)OC3CCCCC3)CCS2(=O)=O)cn1 [Example 209]
38 | – | 0.05 to 30 | Cc1nccn1CC1CCCN(C(=O)C2CN(C3c4ncccc4CCc4cccc(Cl)c43)CCN2C(=O)OC(C)(C)C)C1 (stereo not shown) [Example 395]
39 | – | 0.05 to 30 | Cc1cn(C[C@H]2CCCN(C(=O)[C@H]3CN([C@@H]4c5ccc(Cl)cc5CCc5cc(Br)cnc54)CCN3C(=O)OC(C)C)C2)cn1 [Example 183]
40 | – | 0.05 to 30 | Cc1c(CO)ncn1CC1CCCN(C(=O)C2CN(C3c4ccc(Cl)cc4CCc4cc(Br)cnc43)CCN2C(=O)OC(C)(C)C)C1 (stereo not shown) [Example 160]
